Test: Effect of alkalinizing agents on the pH of a solution of 0.1 N HCl with a starting pH of 2.0
Assay type: physicochemical
Experimental: Various alkalinizing agents were added to a solution of 0.1 N HCl with a starting pH of 2.0 and the pH of the solution was tested at different time points.

[1] = all tested amounts, over the times tested

Which results are given for `CC(=O)[O-].[Na+]` [Sodium Acetate, sodium acetate]?
pH (200 mg in 200 ml, 10 min): 4.73; pH (200 mg in 200 ml, 20 min): 4.96; pH (200 mg in 200 ml, 30 min): 5.08; pH (200 mg in 200 ml, 40 min): 5.21; pH (200 mg in 200 ml, 50 min): 5.34; pH (200 mg in 200 ml, 60 min): 5.34

Which pH (80 mg in 200 ml, 0 min) does the source give for `O=C([O-])[O-].[Mg+2]` [Magnesium Carbonate, magnesium carbonate] here?
Its pH is 2.73.

What about the pH (80 mg in 200 ml, 1 min) of the same molecule?
Its pH is 4.78.

And the pH (80 mg in 200 ml, 2 min)?
Its pH is 6.09.

What about the pH (80 mg in 200 ml, 3 min) of the same molecule?
Its pH is 6.57.

What about the pH (80 mg in 200 ml, 4 min) of the same molecule?
Its pH is 7.44.

What about the pH (80 mg in 200 ml, 5 min) of the same molecule?
Its pH is 8.64.

What about the pH (80 mg in 200 ml, 6 min) of the same molecule?
Its pH is 8.92.

And the pH (80 mg in 200 ml, 7 min)?
The pH was 9.03.

And the pH (80 mg in 200 ml, 8 min)?
Its pH is 9.09.

And the pH (80 mg in 200 ml, 9 min)?
Its pH is 9.13.

What about the pH (80 mg in 200 ml, 10 min) of the same molecule?
Its pH is 9.17.

And the pH (80 mg in 200 ml, 20 min)?
Its pH is 9.26.

What about the pH (80 mg in 200 ml, 30 min) of the same molecule?
The pH was 9.26.

What about the “pH of the solution” value (80 mg in 200 ml, 30 minute timecourse) of the same molecule?
Its value is “above 9”.

And the pH (100 mg in 200 ml, 10 min)?
Its pH is 3.05.

And the pH (100 mg in 200 ml, 20 min)?
Its pH is 3.05.

And the pH (100 mg in 200 ml, 30 min)?
The pH was 3.05.

And the pH (100 mg in 200 ml, 40 min)?
The pH was 3.05.

What about the pH (100 mg in 200 ml, 50 min) of the same molecule?
Its pH is 3.05.

What about the pH (100 mg in 200 ml, 60 min) of the same molecule?
The pH was 3.05.

What does the source list for `Cl.N=C(N)NCCC[C@H](N)C(=O)O` [Arginine HCl, L-arginine-HCl]?
pH (100 mg in 200 ml, 10 min): 2.20; pH (100 mg in 200 ml, 20 min): 2.20; pH (100 mg in 200 ml, 30 min): 2.20; pH (100 mg in 200 ml, 40 min): 2.20; pH (100 mg in 200 ml, 50 min): 2.20; pH (100 mg in 200 ml, 60 min): 2.20

Which results are given for `[Mg+2].[OH-].[OH-]` [magnesium hydroxide]?
pH (60 mg per 320 mL, 2 min): 2.29; pH (60 mg per 320 mL, 3 min): 2.41; pH (60 mg per 320 mL, 4 min): 2.47; pH (60 mg per 320 mL, 5 min): 2.48; pH (60 mg per 320 mL, 6 min): 2.48; pH (60 mg per 320 mL, 7 min): 2.49; pH (60 mg per 320 mL, 8 min): 2.49; pH (60 mg per 320 mL, 9 min): 2.49; pH (60 mg per 320 mL, 10 min): 2.49; pH (60 mg per 320 mL, 20 min): 2.50; pH (60 mg per 500 mL, 2 min): 2.12; pH (60 mg per 500 mL, 3 min): 2.17; pH (60 mg per 500 mL, 4 min): 2.18; pH (60 mg per 500 mL, 5 min): 2.19; pH (60 mg per 500 mL, 6 min): 2.19; pH (60 mg per 500 mL, 7 min): 2.19; pH (60 mg per 500 mL, 8 min): 2.19; pH (60 mg per 500 mL, 9 min): 2.19; pH (60 mg per 500 mL, 10 min): 2.19; pH (60 mg per 500 mL, 20 min): 2.19; effect on pH of the solution (71 mg/200 ml, 81 mg/200 ml and 100 mg/200 ml): raised the pH of the solution to neutral or higher; pH (90 mg per 320 mL, 2 min): 2.37; pH (90 mg per 320 mL, 3 min): 2.55; pH (90 mg per 320 mL, 4 min): 2.77; pH (90 mg per 320 mL, 5 min): 3.06; pH (90 mg per 320 mL, 6 min): 3.13; pH (90 mg per 320 mL, 7 min): 3.22; pH (90 mg per 320 mL, 8 min): 3.28; pH (90 mg per 320 mL, 9 min): 3.31; pH (90 mg per 320 mL, 10 min): 3.33; pH (90 mg per 320 mL, 20 min): 3.34; pH (100 mg per 320 mL, 2 min): 2.36; pH (100 mg per 320 mL, 3 min): 2.53; pH (100 mg per 320 mL, 4 min): 2.74; pH (100 mg per 320 mL, 5 min): 3.07; pH (100 mg per 320 mL, 6 min): 3.39; pH (100 mg per 320 mL, 7 min): 3.73; pH (100 mg per 320 mL, 8 min): 4.26; pH (100 mg per 320 mL, 9 min): 5.41; pH (100 mg per 320 mL, 10 min): 5.86; pH (100 mg per 320 mL, 20 min): 6.51; pH (100 mg per 500 mL, 2 min): 2.21; pH (100 mg per 500 mL, 3 min): 2.33; pH (100 mg per 500 mL, 4 min): 2.38; pH (100 mg per 500 mL, 5 min): 2.40; pH (100 mg per 500 mL, 6 min): 2.40; pH (100 mg per 500 mL, 7 min): 2.41; pH (100 mg per 500 mL, 8 min): 2.41; pH (100 mg per 500 mL, 9 min): 2.41; pH (100 mg per 500 mL, 10 min): 2.41; pH (100 mg per 500 mL, 20 min): 2.41; effect on pH of the solution (100 mg/320 ml, 180 mg/500 ml, 120 mg/320 ml, 200 mg/500 ml and 240 mg/500 ml): rapidly raised the pH of the solution to neutral or higher; pH (120 mg per 320 mL, 2 min): 2.49; pH (120 mg per 320 mL, 3 min): 2.87; pH (120 mg per 320 mL, 4 min): 3.54; pH (120 mg per 320 mL, 5 min): 5.75; pH (120 mg per 320 mL, 6 min): 6.65; pH (120 mg per 320 mL, 7 min): 7.81; pH (120 mg per 320 mL, 8 min): 8.55; pH (120 mg per 320 mL, 9 min): 8.83; pH (120 mg per 320 mL, 10 min): 8.94; pH (120 mg per 320 mL, 20 min): 9.20; pH (120 mg per 500 mL, 2 min): 2.21; pH (120 mg per 500 mL, 3 min): 2.35; pH (120 mg per 500 mL, 4 min): 2.44; pH (120 mg per 500 mL, 5 min): 2.52; pH (120 mg per 500 mL, 6 min): 2.57; pH (120 mg per 500 mL, 7 min): 2.59; pH (120 mg per 500 mL, 8 min): 2.59; pH (120 mg per 500 mL, 9 min): 2.59; pH (120 mg per 500 mL, 10 min): 2.59; pH (120 mg per 500 mL, 20 min): 2.60; effect on pH of the solution (160 mg/320 ml (0.5 mg/ml)): rapidly raised the pH of the solution to neutral or higher; pH (180 mg per 500 mL, 2 min): 2.56; pH (180 mg per 500 mL, 3 min): 3.09; pH (180 mg per 500 mL, 4 min): 3.90; pH (180 mg per 500 mL, 5 min): 5.69; pH (180 mg per 500 mL, 6 min): 6.28; pH (180 mg per 500 mL, 7 min): 6.64; pH (180 mg per 500 mL, 8 min): 7.01; pH (180 mg per 500 mL, 9 min): 7.61; pH (180 mg per 500 mL, 10 min): 8.25; pH (180 mg per 500 mL, 20 min): 9.07; pH (200 mg per 500 mL, 2 min): 2.48; pH (200 mg per 500 mL, 3 min): 2.81; pH (200 mg per 500 mL, 4 min): 3.54; pH (200 mg per 500 mL, 5 min): 5.42; pH (200 mg per 500 mL, 6 min): 6.63; pH (200 mg per 500 mL, 7 min): 7.99; pH (200 mg per 500 mL, 8 min): 8.86; pH (200 mg per 500 mL, 9 min): 9.07; pH (200 mg per 500 mL, 10 min): 9.18; pH (200 mg per 500 mL, 20 min): 9.41; pH (240 mg per 500 mL, 2 min): 2.54; pH (240 mg per 500 mL, 3 min): 3.14; pH (240 mg per 500 mL, 4 min): 5.90; pH (240 mg per 500 mL, 5 min): 7.73; pH (240 mg per 500 mL, 6 min): 9.09; pH (240 mg per 500 mL, 7 min): 9.35; pH (240 mg per 500 mL, 8 min): 9.47; pH (240 mg per 500 mL, 9 min): 9.54; pH (240 mg per 500 mL, 10 min): 9.59; pH (240 mg per 500 mL, 20 min): 9.71; pH of the solution [1]: above 2.0

With `O=C([O-])[O-].[Na+].[Na+]` [sodium carbonate] as the molecule, how does the pH (11.13 mg/200 ml, 0 min) read?
The pH was 2.66.

And the pH (11.13 mg/200 ml, 1 min)?
Its pH is 2.80.

And the pH (11.13 mg/200 ml, 2 min)?
Its pH is 2.80.

What about the pH (11.13 mg/200 ml, 3 min) of the same molecule?
Its pH is 2.80.

And the pH (11.13 mg/200 ml, 4 min)?
The pH was 2.80.

What about the pH (11.13 mg/200 ml, 5 min) of the same molecule?
The pH was 2.80.

What about the pH (11.13 mg/200 ml, 10 min) of the same molecule?
The pH was 2.80.

What about the pH (11.13 mg/200 ml, 15 min) of the same molecule?
The pH was 2.80.

What about the pH (11.13 mg/200 ml, 20 min) of the same molecule?
The pH was 2.80.

And the pH (11.13 mg/200 ml, 60 min)?
Its pH is 2.80.

What about the pH (30.11 mg/200 ml, 0 min) of the same molecule?
Its pH is 2.57.

And the pH (30.11 mg/200 ml, 1 min)?
The pH was 3.21.

What about the pH (30.11 mg/200 ml, 2 min) of the same molecule?
The pH was 3.24.

What about the pH (30.11 mg/200 ml, 3 min) of the same molecule?
The pH was 3.25.

What about the pH (30.11 mg/200 ml, 4 min) of the same molecule?
The pH was 3.25.

And the pH (30.11 mg/200 ml, 5 min)?
Its pH is 3.26.

And the pH (30.11 mg/200 ml, 10 min)?
Its pH is 3.27.

What about the pH (30.11 mg/200 ml, 15 min) of the same molecule?
Its pH is 3.27.

And the pH (30.11 mg/200 ml, 20 min)?
Its pH is 3.27.

And the pH (30.11 mg/200 ml, 60 min)?
The pH was 3.27.

What about the “effect on pH of the solution” value (81.68 mg in 200 ml) of the same molecule?
Its value is “raise the pH of the 200 ml solution to above neutral”.

What about the pH (81.68 mg/200 ml, 0 min) of the same molecule?
The pH was 2.73.

What about the pH (81.68 mg/200 ml, 1 min) of the same molecule?
The pH was 9.02.

What about the pH (81.68 mg/200 ml, 2 min) of the same molecule?
The pH was 9.

And the pH (81.68 mg/200 ml, 3 min)?
The pH was 8.97.

What about the pH (81.68 mg/200 ml, 4 min) of the same molecule?
The pH was 8.95.

And the pH (81.68 mg/200 ml, 5 min)?
Its pH is 8.93.

And the pH (81.68 mg/200 ml, 10 min)?
Its pH is 8.83.

What about the pH (81.68 mg/200 ml, 15 min) of the same molecule?
Its pH is 8.81.

What about the pH (81.68 mg/200 ml, 20 min) of the same molecule?
Its pH is 8.5.

And the pH (81.68 mg/200 ml, 60 min)?
Its pH is 8.25.

What about the “pH of the solution” value [1] of the same molecule?
The value was > 2.0.

— patent publication US9700516B2, “Compositions and methods for reducing overdose” (priority 2014, dated 2017)
